The record followed here is paper PMC4195943, “A novel small-molecule MRCK inhibitor blocks cancer cell invasion” (Cell Communication and Signaling : CCS, 2014).

Series [1] has as its target ROCK1 (Homo sapiens, UniProt Q13464). As to the kind of experiment: IMAP fluorescence polarization kinase assay, ROCK1. It is filed as biochemical. The arrangement: purchased Life Technologies. The note with it: in vitro, 1 μM ATP. On the procedure:
(§1) MRCKα, MRCKβ, ROCK1 and ROCK2 assays were performed using an IMAP fluorescence polarization assay format (Molecular Devices Inc.). 8–12 nM of each kinase (Life Technologies) was incubated for 60 min at room temperature with 100 nM FAM-S6-ribosomal protein derived peptide (synthesized by Alta Biosciences, University of Birmingham UK) in the presence of 1 μM ATP and 0.5 mM MgCl2 in 20 mM Tris buffer (pH 7.4) containing 0.01% Tween-20 and 1 mM DTT (MRCKα and β); or 1 μM ATP, 10 mM MgCl2 in 20 mM Tris buffer (pH 7.5) containing 0.25 mM EGTA 0.01% Triton X-100 and 1 mM DTT (ROCK1 and ROCK2). Typically, dose response analyses were performed over concentration ranges from 0.005 - 100 μM. Reactions were stopped by adding 2 assay volumes of 0.25% (v/v) IMAP binding reagent in 1× IMAP binding buffer A (Molecular Devices). After 30 min incubation to allow binding reagent to bind phosphorylated peptide, fluorescence polarization was measured on a Tecan Saphire^2 plate reader at excitation (470 nm) and emission (530 nm) wavelengths. Inhibition was calculated using no inhibitor and no enzyme controls as 0 and 100% inhibition, respectively.
(In general: Fluorescence polarisation rises when a labelled molecule tumbles more slowly, as on binding a larger partner.)

Series [2] is described as follows: Caco-2 permeability. It is filed as in vitro ADME. The note with it: human. On the technique in general: Caco-2 cells form a polarised layer with tight junctions and transporters.
Series [3] is described as follows: logD. It is filed as physicochemical.
Series [4] has as its target T1, ROCK2 (Homo sapiens, UniProt O75116). Nature of the series: MLC phosphorylation in MDA-MB-231 cells expressing doxycycline-induced ROCK2 kinase domain (quantitative western blot). The note with it: doxycycline-induced MDA-MB-231, 60 minutes treatment; read-out: cell based EC50, MLC phosphorylation induced by ROCK2. The arrangement: The kinase domains of MRCKβ (1–473), ROCK1 (1–535) or ROCK2 (1–532) were gene synthesized; expressed in transfected cells; host or cells: MDA-MB-231 D3H2LN-Luc Tet3G cells, pTRE3G-ROCK2 (1–532). The procedure:
(A) MDA-MB-231 breast cancer cells expressing doxycycline inducible ROCK1, ROCK2 or MRCKβ kinase domains were established as indicated. Following treatment with doxycycline for 18 hours to induce expression, cell lysates were western blotted with antibodies as indicated.
MDA-MB-231 D3H2LN-Luc cells (Caliper LifeScience) were grown in MEM/EBSS (Hyclone) supplemented with 10% fetal bovine serum (FBS) (Gibco), 1 mM Sodium Pyruvate (Sigma) 2 mM L-glutamine (Gibco), 1× MEM non-essential amino acids (Gibco) plus penicillin-streptomycin (10 Units/ml and 10 μg/ml respectively) at 37°C in 5% CO2 in a humidified incubator. MDA-MB-231 D3H2LN-Luc TetOn MRCKβ, ROCK1 and ROCK2 selective cell lines were grown in the same media with 10% FBS replaced with 10% Tet System Approved FBS (Clontech).
The kinase domains of MRCKβ (1–473), ROCK1 (1–535) or ROCK2 (1–532) were gene synthesized (Genscript) and subcloned into pTRE3G (Clontech). MDA-MB-231 D3H2LN-Luc Tet3G cells were co-transfected with pTRE3G-MRCKβ (1–473), pTRE3G-ROCK1 (1–535) or pTRE3G-ROCK2 (1–532), together with a linear Pur^r-selection marker using Xfect transfection reagent according to manufacturer’s instructions. […] Each clone was treated with or without doxycycline (1 μg/ml) for 24 hours and kinase domain expression and activity determined by western blotting. […]
In general terms: A western blot detects proteins with antibodies after separation by electrophoresis.
Target sequence in this assay (O75116 1-532): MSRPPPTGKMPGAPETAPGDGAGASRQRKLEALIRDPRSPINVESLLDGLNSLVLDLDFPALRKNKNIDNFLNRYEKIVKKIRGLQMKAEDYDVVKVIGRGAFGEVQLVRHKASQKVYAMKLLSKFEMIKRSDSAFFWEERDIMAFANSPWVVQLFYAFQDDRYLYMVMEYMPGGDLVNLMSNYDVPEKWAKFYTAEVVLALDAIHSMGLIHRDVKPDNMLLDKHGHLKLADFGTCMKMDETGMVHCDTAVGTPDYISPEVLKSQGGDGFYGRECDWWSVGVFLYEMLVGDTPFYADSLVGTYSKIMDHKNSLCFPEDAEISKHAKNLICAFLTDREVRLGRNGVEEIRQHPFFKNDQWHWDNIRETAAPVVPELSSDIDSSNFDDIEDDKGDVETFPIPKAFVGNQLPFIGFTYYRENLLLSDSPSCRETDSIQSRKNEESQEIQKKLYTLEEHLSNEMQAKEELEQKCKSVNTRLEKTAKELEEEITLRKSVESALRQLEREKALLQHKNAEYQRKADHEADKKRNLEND

Series [5] concerns the target T1, ROCK2. As to the kind of experiment: IMAP fluorescence polarization kinase assay, ROCK2. Set-up: purchased Life Technologies. It is filed as biochemical. The settings on record: in vitro, 1 μM ATP. On the procedure: as §1
Target sequence in this assay (O75116 whole entry, the tested form may be a part): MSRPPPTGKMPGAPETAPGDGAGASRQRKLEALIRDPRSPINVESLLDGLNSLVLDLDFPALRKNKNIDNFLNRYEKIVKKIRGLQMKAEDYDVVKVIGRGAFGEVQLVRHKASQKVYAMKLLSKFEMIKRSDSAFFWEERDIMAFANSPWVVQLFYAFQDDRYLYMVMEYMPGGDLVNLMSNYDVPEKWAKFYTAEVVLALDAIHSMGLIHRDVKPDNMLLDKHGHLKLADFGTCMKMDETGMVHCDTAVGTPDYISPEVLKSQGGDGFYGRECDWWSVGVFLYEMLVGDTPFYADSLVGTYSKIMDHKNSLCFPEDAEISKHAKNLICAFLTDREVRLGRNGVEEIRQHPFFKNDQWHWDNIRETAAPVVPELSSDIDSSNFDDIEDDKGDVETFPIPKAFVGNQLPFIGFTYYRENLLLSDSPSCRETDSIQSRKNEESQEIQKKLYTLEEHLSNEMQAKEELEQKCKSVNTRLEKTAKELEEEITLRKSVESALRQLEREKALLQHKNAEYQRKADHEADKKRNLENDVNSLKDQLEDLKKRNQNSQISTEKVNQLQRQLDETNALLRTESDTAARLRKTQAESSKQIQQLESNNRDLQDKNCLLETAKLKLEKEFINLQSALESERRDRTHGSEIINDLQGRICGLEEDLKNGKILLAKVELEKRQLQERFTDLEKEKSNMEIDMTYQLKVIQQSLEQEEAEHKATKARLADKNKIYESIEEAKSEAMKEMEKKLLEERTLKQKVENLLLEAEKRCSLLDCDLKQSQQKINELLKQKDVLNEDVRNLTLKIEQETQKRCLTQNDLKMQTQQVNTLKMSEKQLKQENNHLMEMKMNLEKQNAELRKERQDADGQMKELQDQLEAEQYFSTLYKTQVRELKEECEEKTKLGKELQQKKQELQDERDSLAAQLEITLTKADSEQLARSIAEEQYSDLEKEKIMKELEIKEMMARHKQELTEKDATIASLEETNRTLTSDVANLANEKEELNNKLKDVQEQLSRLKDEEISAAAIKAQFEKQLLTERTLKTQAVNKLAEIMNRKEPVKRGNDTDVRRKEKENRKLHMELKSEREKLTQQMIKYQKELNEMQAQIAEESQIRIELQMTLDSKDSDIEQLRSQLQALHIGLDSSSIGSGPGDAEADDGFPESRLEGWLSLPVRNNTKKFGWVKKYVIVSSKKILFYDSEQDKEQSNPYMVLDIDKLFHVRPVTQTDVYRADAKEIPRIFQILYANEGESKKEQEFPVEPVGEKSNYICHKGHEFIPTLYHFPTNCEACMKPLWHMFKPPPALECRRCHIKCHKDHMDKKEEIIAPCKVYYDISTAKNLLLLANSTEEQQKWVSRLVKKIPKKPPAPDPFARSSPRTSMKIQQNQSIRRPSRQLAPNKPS
Series [6] addresses T2, MRCKβ (Homo sapiens, UniProt Q9Y5S2).
T2 construct: purchased Life Technologies
Nature of the series: IMAP fluorescence polarization kinase assay, MRCKβ. It is filed as biochemical. The note with it: in vitro, 1 μM ATP. The procedure: as §1

Molecules are shown by their SMILES.

T2 sequence (Q9Y5S2 whole entry): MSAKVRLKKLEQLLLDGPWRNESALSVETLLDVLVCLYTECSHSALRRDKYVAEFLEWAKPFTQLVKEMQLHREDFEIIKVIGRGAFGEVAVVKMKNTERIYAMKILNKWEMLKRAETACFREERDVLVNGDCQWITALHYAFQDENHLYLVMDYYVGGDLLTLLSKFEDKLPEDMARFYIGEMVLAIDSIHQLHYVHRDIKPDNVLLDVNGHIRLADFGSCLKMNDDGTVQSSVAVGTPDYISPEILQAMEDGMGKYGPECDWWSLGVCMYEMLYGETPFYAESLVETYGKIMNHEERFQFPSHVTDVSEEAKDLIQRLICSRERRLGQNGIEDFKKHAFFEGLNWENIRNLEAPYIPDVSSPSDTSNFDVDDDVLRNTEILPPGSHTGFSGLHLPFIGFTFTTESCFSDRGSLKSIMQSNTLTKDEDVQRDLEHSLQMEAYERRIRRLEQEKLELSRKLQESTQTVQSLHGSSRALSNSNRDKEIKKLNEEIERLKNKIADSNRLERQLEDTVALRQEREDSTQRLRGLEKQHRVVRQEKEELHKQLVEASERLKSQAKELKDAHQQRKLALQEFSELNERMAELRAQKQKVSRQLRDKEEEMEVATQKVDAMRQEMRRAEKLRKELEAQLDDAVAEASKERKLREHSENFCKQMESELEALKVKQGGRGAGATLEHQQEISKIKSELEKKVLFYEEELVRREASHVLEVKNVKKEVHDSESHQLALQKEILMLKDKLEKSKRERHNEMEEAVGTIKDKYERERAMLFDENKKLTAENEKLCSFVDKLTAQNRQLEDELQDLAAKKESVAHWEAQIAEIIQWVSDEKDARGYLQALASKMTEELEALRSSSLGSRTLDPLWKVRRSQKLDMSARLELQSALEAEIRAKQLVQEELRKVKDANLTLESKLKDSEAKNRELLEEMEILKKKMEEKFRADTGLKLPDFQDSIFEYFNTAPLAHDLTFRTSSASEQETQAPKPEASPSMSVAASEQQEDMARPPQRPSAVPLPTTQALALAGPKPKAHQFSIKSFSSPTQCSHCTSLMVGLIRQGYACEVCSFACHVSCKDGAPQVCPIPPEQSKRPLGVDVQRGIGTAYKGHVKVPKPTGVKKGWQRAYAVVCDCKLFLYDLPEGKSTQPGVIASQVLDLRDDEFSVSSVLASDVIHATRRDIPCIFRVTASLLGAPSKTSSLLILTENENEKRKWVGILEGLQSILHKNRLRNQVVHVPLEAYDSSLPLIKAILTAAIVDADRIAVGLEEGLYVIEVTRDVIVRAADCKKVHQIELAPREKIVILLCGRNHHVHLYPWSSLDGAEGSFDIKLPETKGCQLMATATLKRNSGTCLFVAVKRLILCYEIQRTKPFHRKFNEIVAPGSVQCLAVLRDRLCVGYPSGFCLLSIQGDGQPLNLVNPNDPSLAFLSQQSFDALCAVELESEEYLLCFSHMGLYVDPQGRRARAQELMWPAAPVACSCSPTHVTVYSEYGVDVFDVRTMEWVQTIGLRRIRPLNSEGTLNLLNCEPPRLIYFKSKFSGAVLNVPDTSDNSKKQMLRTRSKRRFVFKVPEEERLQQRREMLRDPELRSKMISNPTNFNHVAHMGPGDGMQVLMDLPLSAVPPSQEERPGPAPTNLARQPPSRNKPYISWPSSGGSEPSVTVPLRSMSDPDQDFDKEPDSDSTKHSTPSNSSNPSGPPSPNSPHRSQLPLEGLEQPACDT
Sequence of ROCK1 (Q13464 whole entry): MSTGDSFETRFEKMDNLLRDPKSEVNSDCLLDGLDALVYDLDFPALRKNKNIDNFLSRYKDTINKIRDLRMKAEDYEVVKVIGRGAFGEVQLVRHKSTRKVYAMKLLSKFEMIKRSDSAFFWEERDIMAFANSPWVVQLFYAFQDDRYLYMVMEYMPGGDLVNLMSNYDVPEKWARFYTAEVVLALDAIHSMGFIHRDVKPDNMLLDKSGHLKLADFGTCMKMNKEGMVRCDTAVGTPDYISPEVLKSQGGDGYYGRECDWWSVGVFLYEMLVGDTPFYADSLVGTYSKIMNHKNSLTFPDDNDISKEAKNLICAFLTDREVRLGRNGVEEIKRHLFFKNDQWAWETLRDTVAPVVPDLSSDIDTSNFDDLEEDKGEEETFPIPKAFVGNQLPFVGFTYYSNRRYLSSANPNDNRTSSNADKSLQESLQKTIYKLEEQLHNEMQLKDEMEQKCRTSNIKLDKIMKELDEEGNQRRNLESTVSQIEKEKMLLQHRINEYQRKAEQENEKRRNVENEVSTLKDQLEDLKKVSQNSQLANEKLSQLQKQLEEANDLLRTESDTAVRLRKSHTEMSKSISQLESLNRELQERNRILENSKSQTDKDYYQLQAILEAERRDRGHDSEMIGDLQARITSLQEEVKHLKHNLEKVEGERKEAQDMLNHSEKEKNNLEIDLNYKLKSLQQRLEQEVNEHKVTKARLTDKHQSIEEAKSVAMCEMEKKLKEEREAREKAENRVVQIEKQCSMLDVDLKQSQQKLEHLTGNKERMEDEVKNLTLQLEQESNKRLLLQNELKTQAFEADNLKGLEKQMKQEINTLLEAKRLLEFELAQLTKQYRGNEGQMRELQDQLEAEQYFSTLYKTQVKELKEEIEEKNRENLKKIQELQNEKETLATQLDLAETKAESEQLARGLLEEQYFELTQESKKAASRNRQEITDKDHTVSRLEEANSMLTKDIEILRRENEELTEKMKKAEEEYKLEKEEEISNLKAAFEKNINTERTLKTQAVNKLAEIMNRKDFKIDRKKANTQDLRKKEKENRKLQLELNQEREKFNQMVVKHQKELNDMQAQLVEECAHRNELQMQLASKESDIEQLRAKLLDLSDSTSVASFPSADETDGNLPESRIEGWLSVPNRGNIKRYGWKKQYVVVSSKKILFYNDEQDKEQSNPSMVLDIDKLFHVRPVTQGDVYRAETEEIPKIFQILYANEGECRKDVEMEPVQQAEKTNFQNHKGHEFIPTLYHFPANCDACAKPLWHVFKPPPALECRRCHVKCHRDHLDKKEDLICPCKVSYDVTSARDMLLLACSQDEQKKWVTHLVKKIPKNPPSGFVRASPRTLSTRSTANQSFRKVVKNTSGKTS

Take `O=C(Nc1cn[nH]c1-c1ccccn1)c1nn(C2CCNCC2)cc1Cl` [BDP5290, 4-chloro-1-(4-piperidyl)-N-[5-(2-pyridyl)-1H-pyrazol-4-yl]pyrazole-3-carboxamide]: the IC50 (in general, the concentration that gives 50% inhibition) in series [1] came to 0.23 µM; in series [5], 0.123 µM. Moreover, the Papp (commonly a coefficient for how fast a substance crosses the barrier) in series [2] turned out to be 1.71 nm/s. Moreover, the log distribution coefficient (logD) (commonly the decadic logarithm of the distribution of all forms, ionised or not, between an organic phase and buffer at a given pH) in series [3] came to 0.786. In addition, in series [4], the EC50 (commonly the concentration at which the effect is half-maximal) came to 0.447 µM.
`C[C@@H](N)[C@H]1CC[C@H](C(=O)Nc2ccncc2)CC1` [Y27632, reference compound]: 1.45 µM corresponded to half-maximal inhibition in series [6] (IC50).
